Measured values as given in ChEMBL document CHEMBL5678800 (Mol Cancer Ther, 2009).

Test system: Rh41
Test: Antiproliferative activity against human Rh41 cells assessed as inhibition of cell growth incubated for 72 hrs by 3H-thymidine incorporation assay
Type: functional, cell-based

Work on `Cc1cc(Nc2cc(N3CCN(C)CC3)nc(Sc3ccc(NC(=O)C4CC4)cc3)n2)n[nH]1` [TOZASERTIB] yielded an IC50 of 0.093 µM.
